# Laboratory results from patent publication US20240002899A1 (priority 2022, published 2024).
# Where two headings read alike, the source gives them in different places.
# System: VSV (ATCC VR-1238)
# Assay type: cell-based, vesicular stomatitis virus
smiles,measurement,setting,value
Cc1cc2nc3c(=O)[nH]c(=O)nc-3n(C[C@H](O)[C@H](O)[C@H](O)CO)c2cc1C [riboflavin],MVEPI of VSV in plasma,"intermediate-acting RUV: 311 nm, irradiation dose 6.49 J/mL",4.04
same,MVEPI of VSV in plasma,"weak-acting (low-acting) RUV: 365 nm, irradiation dose 12.56 J/mL",1.77
